Laboratory results from patent US8821754B2, “Additive for preserving the fluidity of fluids containing gas hydrates” (Akzo Nobel N.V., priority 2006, dated 2014).
Marks after values point to notes of the source that are not given here.

How the values were obtained:
[1] = multicell shut-in and restart test of anti-agglomerants; design: key: 0: The stirrer did not start at all until the temperature had been increased so much that the gas hydrate had melted; 1: The stirrer started but stopped again after a short period; 2: The stirrer started and kept on running continuously; settings: restart after at least twelve hours at 4° C.; for Tests multicell shut-in, Fresh water (70 bar) 2.5% / Tests multicell shut-in, Seawater (70 bar) 2.5%: 2.5% anti-agglomerant; for Tests multicell shut-in, Fresh water (70 bar) 2.0%: 2.0% anti-agglomerant
Source text: (§1) The technique used for evaluating the anti-agglomerants is described in detail in “New Technique for Evaluating Antiagglomerate Gas-Hydrate Inhibitors in Oilfield Applications”, SPE 93075, 2005 SPE International Symposium on Oilfield Chemistry, Houston, Tex., Feb. 2-4.
(§2) The complete multicell system consists of a high-pressure vessel containing the multicell test unit, a cooling unit, a stirrer drive, a sensor interface unit, and a computer system. The high-pressure vessel is connected to two gas cylinders containing pressurized hydrocarbon gas (87.9% methane, 7.7% ethane, 3.1% propane, and 1.3% isobutane) and nitrogen. Thus, in an experimental run each test cell will be subjected to the same gas mixture, temperature, and pressure. Each cell has a magnetic bar stirrer and the rotation of the stirrer is monitored by the sensor and recorded. When gas hydrate crystals are formed in a cell, there will be a change in viscosity or flow behaviour and there will be a change in the lag of the stirrer bar. Each time the magnetic bar passes a certain point, an optical pulse is recorded. The lag is measured as the difference between the position of the lower drive magnets and the stirrer in the cell. When the viscosity gets too high, as is the case when larger aggregates of gas hydrates are formed, the magnetic stirrer will either stop completely, in which case the signal will be zero, or start “skipping”, which will create an unstable/random signal, and this will be shown in the recorded graph.
(§3) Each cell is also equipped with a temperature sensor.
The cells are loaded in the same way as above, but hydrocarbon gas is admitted until the constant stated pressure is reached.
In this experiment the test cells were stirred at 120 rpm for one hour at 20° C. and the stated pressure. The stirring was then stopped and the autoclave cooled to 4° C. in about 1.5 hours. The cells were then kept at 4° C. for a minimum of twelve hours before the driving magnets were restarted at 120 rpm. They were then kept running for about two hours at 4° C. before the cells were reheated to 20° C. in about 1.5 hours.
This is marked as 0 in the tables. • The stirrer started but stopped again after a short period. This is marked as 1 in the tables. • The stirrer started and kept on running continuously. This is marked as 2 in the tables.

[2] = multicell screening of anti-agglomerants (stirred cells cooled to 4° C., 100 bars); design: key to Tests multicell screening, Seawater 1.0% / Tests multicell screening, Seawater 1.5% / Tests multicell screening, Fresh water 1.5% / Tests multicell screening, Fresh water 2.5%: 0: the compound does not work as an anti-agglomerant; 1: the compound initially works as an anti-agglomerant, but not throughout the whole test; 2: the compound works as an anti-agglomerant throughout the whole test; settings: for Tests multicell screening, Seawater 1.5% / Tests multicell screening, Fresh water 1.5%: 1.5% anti-agglomerant; for Tests multicell screening, Seawater 1.5% / Tests multicell screening, Seawater 1.0% / Tests multicell screening, Fresh water 1.5% / Tests multicell screening, Fresh water 2.5%: 100 bars, 4° C., Sleipner condensate; for effect as anti-agglomerant for gas hydrates in the screening test, in words: multicell screening test of Example 1; for Tests multicell screening, Seawater 1.0%: 1.0% anti-agglomerant; for Tests multicell screening, Fresh water 2.5%: 2.5% anti-agglomerant
Source text: as §1, §2, §3
The cells are loaded with 1 ml of water/inhibitor mixture and 2.5 ml of Sleipner condensate (=crude oil obtained from the Sleipner oilfield of Statoil). Nitrogen is first applied to expel most of the air, and then hydrocarbon gas is admitted until a constant pressure of 100 bars is reached.
During the whole test, the mixtures were continuously stirred at 120 rpm. The temperature was first lowered from about 20° C. to 4° C. in about 1.5 hours, then kept at 4° C. for about two hours, and finally reheated again to 20° C. in about 1.5 hours. When the stirrer works all the time, the compound is considered to work well as an anti-agglomerant, whereas if the stirrer bar stops, the compound is considered not to work as an anti-agglomerant during the prevailing conditions. The tests were performed both in seawater and in fresh water and at different concentrations of the anti-agglomerants.

[3] = seawater, 1.5% anti-agglomerant

Row | Compound | Tests multicell shut-in, Seawater (70 bar) 2.5% ([1]; seawater) | Tests multicell screening, Seawater 1.5% [2] | Tests multicell screening, Seawater 1.0% [2] | other results
1 | CCCCCCCC/C=C\CCCCCCCCN(CCCNC(C)=O)C(C)=O [Compound 10, N-oleyl-trimethylene diamine diamidated with acetic anhydride] | 2 | 2 | – | Tests multicell shut-in, Fresh water (70 bar) 2.5% [1]: 2; Tests multicell shut-in, Seawater (70 bar) 1.5% [1, 3]: 0
2 | CCCCCCCCN(CCCNC(C)=O)C(C)=O [Compound 11, N-(n-octyl)-trimethylene diamine diamidated with acetic anhydride] | – | 2 | – | –
3 | CCCCC(CC)CN(CCCNC(C)=O)C(C)=O (centres unmarked) [Compound 14, N-(2-ethylhexyl)-trimethylene diamine, diamidated with acetic anhydride] | 0 | – | – | Tests multicell shut-in, Fresh water (70 bar) 2.5% [1]: 2; Tests multicell shut-in, Seawater (70 bar) 1.5% [1, 3]: 0
4 | (Coco alkyl)amine + 2EO + 2PO [Compound 3] | 1 | 2 | 2 | Tests multicell shut-in, Fresh water (70 bar) 2.0% [1]: 2; Tests multicell shut-in, Seawater (70 bar) 1.5% [1, 3]: 0; effect as anti-agglomerant for gas hydrates in the screening test, in words [2]: works excellently as an anti-agglomerant
5 | (Coco alkyl)amine + 2EO [B, reference compound] | – | 0 | 0 | effect as anti-agglomerant for gas hydrates in the screening test, in words [2]: not effective
6 | (Coco alkyl)amine + 4 EO [reference compound] | – | 0 | 0 | effect as anti-agglomerant for gas hydrates in the screening test, in words [2]: not effective
7 | Erucyl amine + 2EO + 2PO [Compound 2] | – | 2 | – | Tests multicell screening, Fresh water 1.5% [2]: 2
8 | Monoamide between oleic acid and aminoethyl ethanolamine + 1EO, diesterified with acetic anhydride [Compound 7] | – | – | 2 | –
9 | Monoamide between oleic acid and aminoethyl ethanolamine, amidated with acetic anhydride [Compound 8] | – | 2 | 2 | Tests multicell screening, Fresh water 1.5% [2]: 2
10 | N,N-bis(3-aminopropyl)(tallow alkyl)amine, diamidated with acetic anhydride [Compound 9] | – | 2 | 0 | –
11 | N-(2-ethylhexyl)-trimethylene diamine + 3PO [Compound 15] | 2 | – | – | Tests multicell shut-in, Fresh water (70 bar) 2.5% [1]: 1
12 | N-(coco alkyl)-trimethylene diamine diamidated with acetic anhydride [Compound 12] | – | 2 | – | –
13 | N-(n-octyl)-trimethylene diamine + 3PO [Compound 4] | – | 2 | – | –
14 | N-(tallow alkyl)-N-methyl aminopropylamine monoamidated with acetic anhydride [Compound 13] | – | 2 | – | –
15 | N-oleyl-trimethylene diamine + 3EO, triesterified with acetic anhydride [Compound 6] | 1 | 2 | – | Tests multicell shut-in, Fresh water (70 bar) 2.5% [1]: 2; Tests multicell shut-in, Seawater (70 bar) 1.5% [1, 3]: 0; Tests multicell screening, Fresh water 2.5% [2]: 2
16 | Oleyl amine + 2EO + 2PO [Compound 1] | 1 | 2 | – | Tests multicell shut-in, Fresh water (70 bar) 2.0% [1]: 1; Tests multicell shut-in, Fresh water (70 bar) 2.5% [1]: 1; Tests multicell shut-in, Seawater 1.5%, measured at 100 bar ([1]; seawater, 100 bar, 1.5% anti-agglomerant): 2**
17 | Oleyl amine + 2EO + 2PO, quaternized with CH3Cl [reference compound] | – | 2 | – | Tests multicell screening, Fresh water 1.5% [2]: 0
18 | Oleyl amine + 2EO [D, reference compound] | – | – | 0 | –
19 | Oleyl amine + 2EO, diester with acetic acid [Compound 5] | – | 2 | 0 | Tests multicell screening, Fresh water 1.5% [2]: 0; Tests multicell screening, Fresh water 2.5% [2]: 0
